Reference: patent publication US9981909B2 (Janssen Pharmaceutica NV, priority 2008, dated 2018)
Structures can show the parent of a compound that is named as a salt.

Assays:
human SERT = human SERT (Homo sapiens (Human), UniProt P31645); test: human SERT binding assay with [3H]-citalopram on HEK-293 membranes; conditions: read-out: hSERT binding Ki
Experimental: (§1) Receptor binding was performed using membrane fractions prepared from the HEK-293 cell line recombinantly expressing rat 5-HT7 receptors (NCBI accession NM_022938). Compound affinity for the rat 5-HT7 receptor subtype was evaluated by competitive radioligand binding assays using 5-carboxamido[^3H]tryptamine ([^3H]5-CT) (Amersham Biosciences, cat. 90000403) detection. HitHunter™ cAMP assays are in-vitro based competitive immunoassays. The assay was performed on the HEK-293 cell line stably transfected with r5-HT7 receptor. Cells were pre-incubated with test compounds for 10 minutes. For antagonist testing, the cells were then challenged with 100 nM 5-CT for 20 minutes. Cells were then lysed and cAMP measured according to manufacturers protocol (Amersham, cat. NET791250UC) or [^3H]mesulergine (Amersham, cat. TRK1041). The assay was performed on membranes prepared from HEK-293 cells stably transfected with h5-HT6. Following centrifugation, membranes were resuspended and incubated for 60 min at room temperature with 1.7 nM [^3H]LSD in the presence of increasing concentration of test compounds. Nonspecific binding was defined in the presence of 10 μM clozapine (Tocris, cat. TRK1068). Homogenized HEK-293 membranes expressing the human SERT were incubated in 50 mM Tris-HCl (pH 7.5), 120 mM NaCl, 5 mM KCl with [^3H]-citalopram (3 nM) with or without test compounds. Nonspecific binding was determined in the presence of 10 μM fluoxetine. Radioactivity readouts and Ki values were performed as previously described for r5-HT7. […] Compounds were assayed in their free form or as salts, as indicated in the Examples section above.

rat 5-HT7 receptor = rat 5-HT7 receptor (Rattus norvegicus (Rat), UniProt P32305); test: r5-HT7 binding assay, competitive radioligand binding with [3H]5-CT
Experimental: as §1

[1] = rat 5-HT7 receptor, HEK-293 membranes

Sequence of rat 5-HT7 receptor (P32305 1-435): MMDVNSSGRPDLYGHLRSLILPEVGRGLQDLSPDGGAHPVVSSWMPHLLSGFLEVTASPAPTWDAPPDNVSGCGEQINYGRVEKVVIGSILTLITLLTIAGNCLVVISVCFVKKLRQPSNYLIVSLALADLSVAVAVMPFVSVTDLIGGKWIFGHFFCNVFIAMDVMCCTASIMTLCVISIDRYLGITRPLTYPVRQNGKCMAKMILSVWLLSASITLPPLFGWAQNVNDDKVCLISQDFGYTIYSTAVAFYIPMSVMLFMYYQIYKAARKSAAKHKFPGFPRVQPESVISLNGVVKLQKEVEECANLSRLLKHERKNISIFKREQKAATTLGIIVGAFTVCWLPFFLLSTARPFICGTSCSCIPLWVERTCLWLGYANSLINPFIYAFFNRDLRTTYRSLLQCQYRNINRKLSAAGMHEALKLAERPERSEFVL
Sequence of human SERT (P31645 whole entry): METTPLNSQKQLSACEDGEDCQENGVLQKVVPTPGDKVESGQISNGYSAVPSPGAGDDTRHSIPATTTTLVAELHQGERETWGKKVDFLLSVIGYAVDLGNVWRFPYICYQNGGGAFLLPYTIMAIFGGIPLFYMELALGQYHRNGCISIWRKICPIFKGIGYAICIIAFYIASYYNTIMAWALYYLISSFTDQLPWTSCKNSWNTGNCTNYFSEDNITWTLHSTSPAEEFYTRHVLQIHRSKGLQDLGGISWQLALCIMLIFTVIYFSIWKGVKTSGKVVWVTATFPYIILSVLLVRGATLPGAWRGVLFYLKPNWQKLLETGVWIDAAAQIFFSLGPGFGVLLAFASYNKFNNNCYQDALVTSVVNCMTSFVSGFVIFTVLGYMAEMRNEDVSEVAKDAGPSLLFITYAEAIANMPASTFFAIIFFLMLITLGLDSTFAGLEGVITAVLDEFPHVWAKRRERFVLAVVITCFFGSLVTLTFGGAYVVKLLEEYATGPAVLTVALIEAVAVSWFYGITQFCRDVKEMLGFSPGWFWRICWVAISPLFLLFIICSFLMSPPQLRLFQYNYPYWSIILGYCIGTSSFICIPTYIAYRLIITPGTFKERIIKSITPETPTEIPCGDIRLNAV

| Ki (rat 5-HT7 receptor; rat 5-HT7, HEK-293 membranes) [nM] | Compound | Ki (human SERT) [nM] | Ki (rat 5-HT7 receptor; [1]) [nM] |
| --- | --- | --- | --- |
| 196 | Brc1ccc(Oc2cccc3ccccc23)c(OC2CNC2)c1 [Example 255, 3-[5-Bromo-2-(naphthalen-1-yloxy)-phenoxy]-azetidine] |  |  |
| 160 | Clc1ccc(Oc2ccccc2)c(OC2CNC2)c1 [Example 256, 3-(5-Chloro-2-phenoxy-phenoxy)-azetidine] |  |  |
| 1600 | Clc1ccc(Oc2nc3ccccc3s2)c(OC2CNC2)c1 [Example 261, 2-[2-(Azetidin-3-yloxy)-4-chloro-phenoxy]-benzothiazole] |  |  |
| 544 | Clc1ccc(Oc2ccc3cccnc3n2)c(OC2CNC2)c1 [Example 263, 2-[2-(Azetidin-3-yloxy)-4-chloro-phenoxy]-[1,8]naphthyridine] |  |  |
| 130 | Clc1ccc(Oc2ccccc2)c(OC2CCNCC2)c1 [Example 265, 4-(5-Chloro-2-phenoxy-phenoxy)-piperidine] |  |  |
| 98 | O=C(c1ccccc1)c1ccc(Br)cc1OC1CNC1 [Example 280] |  |  |
| 50 | CN1CC(Oc2cc(Br)ccc2C(=O)c2cccc(Cl)c2)C1 [Example 283, [4-Bromo-2-(1-methyl-azetidin-3-yloxy)-phenyl]-(3-chloro-phenyl)-methanone] |  |  |
| 19 | Cc1cccc(C(=O)c2ccc(Br)cc2OC2CNC2)c1 [Example 284, [2-(Azetidin-3-yloxy)-4-bromo-phenyl]-m-tolyl-methanone] |  |  |
| 3000 | Cc1ccccc1C(=O)c1ccc(Br)cc1OC1CNC1 [Example 285, [2-(Azetidin-3-yloxy)-4-bromo-phenyl]-o-tolyl-methanone] |  |  |
| 39 | COc1cccc(C(=O)c2ccc(Br)cc2OC2CNC2)c1 [Example 286, [2-(Azetidin-3-yloxy)-4-bromo-phenyl]-(3-methoxy-phenyl)-methanone] |  |  |
| 59 | CC(C)N1CC(Oc2cc(Br)ccc2C(=O)c2ccc3ccccc3c2)C1 [Example 288, [4-Bromo-2-(1-isopropyl-azetidin-3-yloxy)-phenyl]-naphthalen-2-yl-methanone] |  |  |
| 143 | CC(C)N1CC(Oc2cc(Br)ccc2C(=O)c2ccc3c(c2)OCO3)C1 [Example 290, Benzo[1,3]dioxol-5-yl-[4-bromo-2-(1-isopropyl-azetidin-3-yloxy)-phenyl]-methanone] |  |  |
| 34 | COc1ccc(C(=O)c2ccc(Br)cc2OC2CNC2)cc1 [Example 291, [2-(Azetidin-3-yloxy)-4-bromo-phenyl]-(4-methoxy-phenyl)-methanone] |  |  |
| 74 | O=C(c1ccc(Cl)c(F)c1)c1ccc(Br)cc1OC1CNC1 [Example 292, [2-(Azetidin-3-yloxy)-4-bromo-phenyl]-(4-chloro-3-fluoro-phenyl)-methanone] |  |  |
| 51 | O=C(c1ccc(Cl)c(Cl)c1)c1ccc(Br)cc1OC1CNC1 [Example 293, [2-(Azetidin-3-yloxy)-4-bromo-phenyl]-(3,4-dichloro-phenyl)-methanone] |  |  |
| 72 | O=C(c1ccc2ccccc2c1)c1ccc(Cl)cc1OC1CNC1 [Example 294, [2-(Azetidin-3-yloxy)-4-chloro-phenyl]-naphthalen-2-yl-methanone] |  |  |
| 226 | O=C(c1ccc2c(c1)OCO2)c1ccc(Cl)cc1OC1CNC1 [Example 295, [2-(Azetidin-3-yloxy)-4-chloro-phenyl]-benzo[1,3]dioxol-5-yl-methanone] |  |  |
| 181 | CC(C)N1CC(Oc2cc(Cl)ccc2C(=O)c2ccc3c(c2)OCO3)C1 [Example 296, Benzo[1,3]dioxol-5-yl-[4-chloro-2-(1-isopropyl-azetidin-3-yloxy)-phenyl]-methanone] |  |  |
| 150 | O=C(c1ccc(Cl)cc1)c1ccc(Cl)cc1OC1CNC1 [Example 297, [2-(Azetidin-3-yloxy)-4-chloro-phenyl]-(4-chloro-phenyl)-methanone] |  |  |
| 102 | O=C(c1cccc(Cl)c1)c1ccc(Cl)cc1OC1CNC1 [Example 298, [2-(Azetidin-3-yloxy)-4-chloro-phenyl]-(3-chloro-phenyl)-methanone] |  |  |

Continued, compound first:

| Compound | Ki (rat 5-HT7 receptor; rat 5-HT7, HEK-293 membranes) [nM] | Ki (human SERT) [nM] | Ki (rat 5-HT7 receptor; [1]) [nM] |
| --- | --- | --- | --- |
| CC(Oc1ccc(Cl)cc1OC1CN(Cc2ccccc2)C1)c1cccc(C(F)(F)F)c1 (racemic) [Example 108, (±)-1-Benzyl-3-[5-chloro-2-[1-(3-trifluoromethyl-phenyl)-ethoxy]-phenoxy]-azetidine] |  | 5000 | 36 |
| CC(Oc1ccc(Cl)cc1OC1CN(C)C1)c1cccc(C(F)(F)F)c1 (racemic) [Example 109, (±)-3-[5-Chloro-2-[1-(3-trifluoromethyl-phenyl)-ethoxy]-phenoxy]-1-methyl-azetidine] |  | 2900 | 5 |
| CC(Oc1ccc(Br)cc1OC1CNC1)c1cccc(OC(F)(F)F)c1 (racemic) [Example 110, (±)-3-[5-Bromo-2-[1-(3-trifluoromethoxy-phenyl)-ethoxy]-phenoxy]-azetidine] |  | 554 | 90 |
| CC(Oc1ccc(Cl)cc1OC1CNC1)c1cccc(F)c1 (racemic) [Example 115, (±)-3-[5-Chloro-2-[1-(3-fluoro-phenyl)-ethoxy]-phenoxy]-azetidine] |  | 202 | 33 |
| CC1(Oc2cc(Br)ccc2Oc2ccccc2)CNC1 [Example 218, 3-(5-Bromo-2-phenoxy-phenoxy)-3-methyl-azetidine] | 69 |  |  |
| CC(C)N1CC(Oc2ccc(Cl)cc2OC2CNC2)C1 [Example 224, 3-[5-Chloro-2-(1-Isopropyl-azetidin-3-ol)-phenoxy]-azetidine] | 68 |  |  |
| Clc1ccc(OC2CN(C(c3ccccc3)c3ccccc3)C2)c(OC2CNC2)c1 [Example 225, 3-[5-Chloro-2-(1-benzhydryl-azetidin-3-ol)-phenoxy]-azetidine] | 2670 |  |  |
| Clc1ccc(OC2CNC2)c(OC2CNC2)c1 [Example 226] | 840 |  |  |
| CC(C)N1CC(Oc2ccc(Cl)cc2OC2CN(C(C)C)C2)C1 [Example 227, 3-[5-Chloro-2-(1-Isopropyl-azetidin-3-ol)-phenoxy]-1-isopropyl-azetidine] | 336 |  |  |
| CN1CC(COc2cc(Br)ccc2OCc2cccc(Cl)c2)C1 [Example 234, 3-[5-Bromo-2-(3-chloro-benzyloxy)-phenoxymethyl]-1-methyl-azetidine] | 130 |  |  |
| OC1(COc2cc(Br)ccc2OCc2cccc(Cl)c2)CNC1 [Example 235, 3-[5-Bromo-2-(3-chloro-benzyloxy)-phenoxymethyl]-azetidin-3-ol] | 665 |  |  |
| CC(Oc1cc(Br)ccc1OCc1cccc(Cl)c1)C1(O)CNC1 (stereo not drawn) [Example 236, 3-[1-[5-Bromo-2-(3-chloro-benzyloxy)-phenoxy]-ethyl]-azetidin-3-ol] | 831 |  |  |
| Clc1cccc(COc2ccc(Br)cc2COC2CNC2)c1 [Example 237, 3-[5-Bromo-2-(3-chloro-benzyloxy)-benzyloxy]-azetidine] | 120 |  |  |
| Clc1cccc(COc2ccc(Cl)cc2COC2CNC2)c1 [Example 238, 3-[5-Chloro-2-(3-chloro-benzyloxy)-benzyloxy]-azetidine] | 200 |  |  |
| Cc1noc(COc2ccc(Cl)cc2OC2CNC2)n1 [Example 239, 5-[2-(Azetidin-3-yloxy)-4-chloro-phenoxymethyl]-3-methyl-[1,2,4]oxadiazole] | 233 |  |  |
| Clc1ccc(OCc2nc(C3CCC3)no2)c(OC2CNC2)c1 [Example 240, 5-[2-(Azetidin-3-yloxy)-4-chloro-phenoxymethyl]-3-cyclobutyl-[1,2,4]oxadiazole] | 252 |  |  |
| Clc1ccc(OCc2nc(C3CC3)no2)c(OC2CNC2)c1 [Example 241, 5-[2-(Azetidin-3-yloxy)-4-chloro-phenoxymethyl]-3-cyclopropyl-[1,2,4]oxadiazole hydrochloride] | 263 |  |  |
| CC(C)c1noc(COc2ccc(Cl)cc2OC2CNC2)n1 [Example 242, 5-[2-(Azetidin-3-yloxy)-4-chloro-phenoxymethyl]-3-isopropyl-[1,2,4]oxadiazole hydrochloride] | 273 |  |  |
| CCc1noc(COc2ccc(Cl)cc2OC2CNC2)n1 [Example 243, 5-[2-(Azetidin-3-yloxy)-4-chloro-phenoxymethyl]-3-ethyl-[1,2,4]oxadiazole hydrochloride] | 461 |  |  |
| COc1cccc(Oc2ccc(Br)cc2OC2CNC2)c1 [Example 248, 3-[5-Bromo-2-(3-methoxy-phenoxy)-phenoxy]-azetidine] | 43 |  |  |
| Fc1ccc(Oc2ccc(Br)cc2OC2CNC2)cc1 [Example 249, 3-[5-Bromo-2-(4-fluoro-phenoxy)-phenoxy]-azetidine] | 20 |  |  |
| Brc1ccc(Oc2ccc(Br)cc2OC2CNC2)cc1 [Example 250, 3-[5-Bromo-2-(4-bromo-phenoxy)-phenoxy]-azetidine] | 17 |  |  |
| Brc1ccc(Oc2ccc3ccccc3c2)c(OC2CNC2)c1 [Example 254, 3-[5-Bromo-2-(naphthalen-2-yloxy)-phenoxy]-azetidine] | 19 |  |  |
| Cc1ccccc1Oc1ccc(Cl)cc1OC1CNC1 [Example 259, 3-(5-Chloro-2-o-tolyloxy-phenoxy)-azetidine trifluoroacetate] | 460 |  |  |
